Source: patent publication US8481711B2, “Neurite outgrowth agent” (Hidenori Kamanishi, priority 2010, dated 2013)

Assays:
Assay type in all cases: cell-based
NB-1 cells = experiment: Neurite outgrowth in human neuroblastoma-derived NB-1 cells (phase-contrast microscopy); settings: 10 μg/mL; for morphological alteration of the cells (neurite outgrowth): NB-1 cells 10^3 cells/mL, observed on the 10th day (FIG. 15)
Description: Using human neuroblastoma cell-derived cells as model cells for neurite outgrowth, the action of the NAD analogue of the present invention to induce the outgrowth of neurites was examined. Human-derived neuroblastoma cells (NB-1 cells) (obtained from the Health Science Research Resources Bank) were adjusted to a concentration of 10^3 cells/mL, and the cells were then cultured at 37° C. in a 10% fetal bovine serum-added Eagle's minimal essential medium (EME) culture solution in the presence of 5% CO2.
The above-described NB-1 cells were cultured for 3 hours, and the medium was then exchanged with a fresh one of the same type as described above. Then, 10 μg/mL of the NAD analogue of the present invention was added thereto, and the culture was further continued. Thereafter, the morphological alteration of the cells was observed under a phase-contrast microscope. During the culture, the culture solution was exchanged with a fresh one every 4 or 5 days. […] However, when compared with the case of adding the NAD analogue of the present invention to the cells, the length of such a neurite was apparently short. Moreover, the same experiment as described above was carried out using commercially available β-NAD.
The number of human neuroblastoma-derived cells (NB-cells), which were to be used as model cells for studying neurite outgrowth effect, was adjusted to 10^6 cells/mL. Thus prepared NB-1 cells were cultured in an Eagle's MEM medium, to which calf serum had been added to a final concentration of 10% and to which 10 μg/mL of the NAD analogue of the present invention had also been added. After 7 days passed, the morphological alteration of the cells was observed under a phase-contrast microscope at a magnification of 200 times.

HT1080 cells = experiment: Growth suppression of human fibrosarcoma cells (cell count); settings: tested 0, 2.0, 4.0, 8.0 μg/mL, 7 days, t-test p<0.05 (FIG. 20)
Description: (§1) The number of human fibrosarcoma cells (HT1080 cells) was adjusted to 1.0×10^4 cells/mL. Thus prepared HT1080 cells were cultured in an Eagle's MEM medium, to which calf serum had been added to a final concentration of 10% and to which the NAD analogue of the present invention had also been added in various concentrations of 0, 2.0, 4.0, and 8.0 μg/mL. After 7 days passed, the number of cells was counted.
(§2) Analysis was carried out by a t-test. It was determined that p<0.05 indicated a significant difference.

HT29 cells = experiment: Growth suppression of human colon-adenocarcinoma cells (cell count); settings: tested 0, 2.0, 4.0, 8.0 μg/mL, 7 days, t-test p<0.05 (FIG. 21)
Description: as §1, with “colon-adenocarcinoma” for “fibrosarcoma”, “(HT29” for “(HT1080”, “HT29” for “HT1080”
as §2

Neuro-2a cells = experiment: Neurite outgrowth in mouse neuroblastoma Neuro-2a cells (phase-contrast microscopy); settings: 10 μg/mL, 48 hours culture, vs control without compound
Description: Using mouse-derived neuroblastoma cells that are model cells used to examine neurite outgrowth effect, the inductive action of the NAD analogue of the present invention on the outgrowth of neurites was examined. Mouse-derived neuroblastoma cells (Neuro-2a cells) (obtained from the Health Science Research Resources Bank) were adjusted to a concentration of 10^6 cells/mL, and the cells were then cultured at 37° C. in a 10% fetal bovine serum-added Eagle's minimal essential (EME) medium culture solution in the presence of 5% CO2.
The above-described Neuro-2a cells were cultured for 3 hours, and the medium was then exchanged with a fresh one of the same type as described above. Then, 10 μg/mL of the NAD analogue of the present invention was added thereto, and the culture was further continued for 48 hours. Thereafter, the morphological alteration of the cell was observed under a phase-contrast microscope. […] However, when compared with the case of adding the NAD analogue of the present invention to the cells, the length of such a neurite was apparently short. Moreover, the same experiment as described above was carried out using commercially available β-NAD.

HL-60 cells [1] = experiment: Apoptosis induction in human myeloid leukemia cells (nuclear staining, DNA electrophoresis)
Description: The number of human myeloid leukemia cells (HL-60 cells) was adjusted to 1.0×10^4 cells/mL. The thus prepared HL-60 cells were cultured in an RPMI medium, to which calf serum had been added to a final concentration of 10% and to which the NAD analogue of the present invention had also been added in a concentration of 10 μg/mL or 20 μg/mL. Four days later, the cells were subjected to nuclear staining, and they were then observed under a fluorescence microscope. Furthermore, DNA was extracted from the cells according to an ordinary method and was then electrophoresed.

[2] = test system: fetal rat midbrain dopaminergic nerve cells; experiment: Neurite outgrowth in fetal rat midbrain dopaminergic nerve cells (anti-tyrosine hydroxylase immunostaining, Neurolucida); settings: for length of neurites elongated from the cell bodies (concentration dependence): 0.01, 0.1, 1.0 and 10 μg/mL, vs control (FIG. 6)
Description: Fetuses were removed from a Sprague-Dawley (SD) rat that was 15 days pregnant, and a ventral portion of midbrain was then cut out under a stereoscopic microscope. The obtained portion was chopped with a surgical knife, and was then treated at 37° C. in a 0.25% trypsin-containing PBS for 20 minutes, so that the cells were dispersed. Thereafter, the resulting cells were treated with PBS that contained 50 μg/mL deoxyribonuclease (DNase I) and 50 μg/mL trypsin inhibitor at 37° C. for 5 minutes, so as to obtain fetal rat midbrain dopaminergic nerve cells. The thus obtained fetal rat midbrain dopaminergic nerve cells were cultured at 37° C. in a 10% bovine serum-added Dulbecco's modified Eagle's medium (DMEM) culture solution in the presence of 5% CO2.
The above-described fetal rat midbrain dopaminergic nerve cells were cultured for 2 days, and the culture solution was then exchanged with a fresh one. The NAD analogue of the present invention was added to the cells in various concentrations of 0 (control), 0.01, 0.1, 1.0 and 10 μg/mL, and the obtained mixture was further cultured for 3 days. On the 5th day of the culture, the dopaminergic nerve cells were stained with an anti-tyrosine hydroxylase antibody (manufactured by Pel-Freez) and a Fluorescein (FITC)-labeled secondary antibody (manufactured by Jackson ImmunoResearch Laboratories, Inc.) according to an immunostaining method. Then, the length and number of neurites elongated from the cell bodies of the stained cells were then measured using Neurolucida (manufactured by Micro Bright Field). […] Moreover, the same experiment as described above was carried out using commercially available β-NAD.
The lengths of neurites elongated from the cells were measured, and a comparison was made on the measurement results. When 10 μg/mL of the NAD analogue of the present invention was added to the cells, the length of the obtained neurite became approximately 150% if the length of a neurite in the control was defined as 100%. […] It is noted that 45 control cells and 38 test cells were subjected to the measurement, and the results were shown as average values.
FIG. 8 is a graph showing a quantitative change in the effect of the NAD analogue of the present invention to allow neurites to elongate from fetal rat brain dopaminergic cells. […] Moreover, the same experiment as described above was carried out using commercially available β-NAD.

UF-1 cells = experiment: Growth suppression of retinoic acid-resistant leukemia cells (cell count); settings: tested 0, 2.0, 4.0, 8.0 μg/mL, 28 days, t-test p<0.05 (FIG. 19)
Description: as §1, with “retinoic acid-resistant leukemia” for “human fibrosarcoma”, “(UF-1” for “(HT1080”, “The thus” for “Thus”, “UF-1” for “HT1080”, “RPMI” for “Eagle's MEM”, “28” for “7”
Analysis was carried out by a t-test. It was determined that p<0.05 indicated a significant difference. […] A differentiation induction therapy using retinoic acid has conventionally been carried out for the treatment of myeloid leukemia cells. It has been known that the leukemia cells eventually become resistant to retinoic acid, and thus the effect of retinoic acid becomes deactivated. However, from the results of the test using the NAD analogue of the present invention, it was confirmed that the NAD analogue of the present invention has an action to suppress the growth of even leukemia cells, which have acquired resistance to retinoic acid. In general, cells are not cultured for such a long period of time. The above-mentioned results were epoch-making in the sense that they were found after the culture for 28 days.

HL-60 cells [3] = experiment: Growth suppression of human myeloid leukemia cells (cell count); settings: tested 0, 2.0, 4.0, 8.0 μg/mL, 5 days, t-test p<0.05 (FIG. 17)
Description: as §1, with “myeloid leukemia” for “fibrosarcoma”, “(HL-60” for “(HT1080”, “The thus” for “Thus”, “HL-60” for “HT1080”, “5” for “7”
as §2

For “3-(aminocarbonyl)-1-[5-O-[[1-(6-amino-9H-purin-9-yl)-1-deoxy-β-D-ribofuranose-5-O-yl]phosphonyloxy(oxylato)phosphinyl]-β-L-ribofuranosyl]pyridinium [NAD analogue of the present invention]”, the “morphological alteration of the cells (neurite outgrowth)” value (NB-1 cells) was “neurites (nerve axon-like projections) appeared from NB-1 cells and that these neurites elongated from the cells”, the “morphological alteration of the cells (neurite-like structures)” value (NB-1 cells; NB-1 cells 10^6 cells/mL, after 7 days (FIG. 16)) was “neurite-like structures elongated more significantly” and the “concentration at which growth of the cells was significantly suppressed” value (HT1080 cells) was no less than 4.0 µg/mL. For the same molecule, the “concentration at which growth of the cells was significantly suppressed” value (HT29 cells) was no less than 2 µg/mL, the “morphological alteration of the cell (neurite outgrowth)” value (Neuro-2a cells) was “neurites (nerve axon-like projections) appeared from Neuro-2a cells and that these neurites elongated from the cells” and the “shape of the nucleus (nuclear staining, fluorescence microscope)” value (HL-60 cells [1]; HL-60 cells cultured for 4 days with compound (FIG. 18B)) was “the breakage of the nucleus in the HL-60 cell was clearly observed”. The “DNA fragmentation (electrophoresis of extracted DNA)” value (HL-60 cells [1]; HL-60 cells, 10 μg/mL or 20 μg/mL, 4 days (FIG. 18C lanes 3 and 4)) was “fragmentation of the DNA due to apoptosis was observed in the form of a “ladder.””, the “length of the neurite (control defined as 100%)” value ([2]; 10 μg/mL, average of 38 test cells vs 45 control cells (FIG. 7)) was “approximately 150%” and the “length of neurites elongated from the cell bodies (concentration dependence)” value ([2]; 3 days) was “the higher the concentration of the NAD analogue of the present invention in the fetal rat midbrain nerve cells, the longer a neurite”. For the same molecule, the “concentration whose addition allows neurites to elongate” value ([2]; fetal rat brain dopaminergic cells (FIG. 8)) was 0.1 µg/mL, the “formation of varicosities on the projection” value ([2]; fetal rat midbrain nerve cells, 0 to 10 μg/mL, 3 days) was “forms a large number of knobby, what is called “varicosities” on the projection” and the “concentration at which growth of the UF-1 cells was significantly suppressed” value (UF-1 cells) was no less than 8.0 µg/mL. The “concentration at which growth of the HL-60 cells was obviously suppressed” value (HL-60 cells [3]) was no less than 2.0 µg/mL.
In the case of `NC(=O)c1ccc[n+]([C@@H]2O[C@H](COP(=O)([O-])OP(=O)(O)OC[C@H]3O[C@@H](n4cnc5c(N)ncnc54)[C@H](O)[C@@H]3O)[C@@H](O)[C@H]2O)c1` [β-NAD, reference compound], the “morphological alteration of the cells (neurite outgrowth)” value (NB-1 cells) is reported as “no change in neurites was found”, the “morphological alteration of the cell (neurite outgrowth)” value (Neuro-2a cells) is reported as “no change in neurites was found” and the “length of neurites elongated from the cell bodies (concentration dependence)” value ([2]; 3 days) is reported as “the outgrowth of neurites was not observed”. The “outgrowth of neurites (same experiment as FIG. 8)” value ([2]; fetal rat brain dopaminergic cells) was “the outgrowth of neurites was not observed”.
